Experiment [1] concerns the target T1, truncated His-MBP-Tev-KLHDC2 (residues 1-363) (Homo sapiens, UniProt Q9Y2U9).
T1 construct: truncated His -MBP-Tev-KLHDC2 (residues 1-363) purified from E. coli; made in house; host or cells: E. coli
T1 sequence (Q9Y2U9 1-363): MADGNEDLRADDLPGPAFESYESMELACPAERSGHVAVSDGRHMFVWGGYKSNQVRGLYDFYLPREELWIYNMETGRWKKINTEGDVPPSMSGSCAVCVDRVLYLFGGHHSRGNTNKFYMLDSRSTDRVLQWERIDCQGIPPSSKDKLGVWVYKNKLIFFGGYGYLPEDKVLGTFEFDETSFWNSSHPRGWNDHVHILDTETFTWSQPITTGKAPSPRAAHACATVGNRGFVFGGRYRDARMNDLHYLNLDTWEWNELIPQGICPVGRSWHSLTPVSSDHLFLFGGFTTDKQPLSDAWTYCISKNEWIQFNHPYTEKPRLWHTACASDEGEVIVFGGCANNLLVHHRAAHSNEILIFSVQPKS
Description: KLHDC2 HTRF binding assay. The conditions noted are these: 1 nM KLHDC2 (residues 1-363), fluorescein-labeled diglycine peptide probe. In general terms: TR-FRET usually uses a lanthanide donor and a delayed reading to cut background.

Experiment [2] concerns the target T1, truncated His-MBP-Tev-KLHDC2 (residues 1-363). Description: KLHDC2 FP competition binding assay. The conditions noted are these: 15 nM KLHDC2 (residues 1-363), 10 nM fluorescein-labeled diglycine peptide probe, read-out: KLHDC2 binding Human FP: average external IC50.

With `CCc1ccccc1C(=O)Nc1ccc(=O)n(CC(=O)O)c1` [I-318], the IC50 in experiment [1] and in experiment [2] was over 5 µM throughout.

With `Cc1cccc(Cl)c1C(=O)Nc1ccc(=O)n(CC(=O)O)c1` [I-319], the half-maximal inhibitory concentration (IC50) in experiment [1] and in experiment [2] was over 5 µM throughout.

As to `COc1cc2ccccc2cc1C(=O)Nc1ccc(=O)n(CC(=O)O)c1` [I-320], the IC50 in experiment [1] and in experiment [2] was over 5 µM each time.

As for `O=C(O)Cn1cc(NC(=O)c2ccccc2C(F)F)ccc1=O` [I-321], the IC50 in experiment [1] and in experiment [2] was over 5 µM throughout.

On to `O=C(O)Cn1cc(-c2cccc(N3CCOCC3)c2)ccc1=O` [I-322], for which the half-inhibitory concentration (IC50) in experiment [1] and in experiment [2] was over 5 µM each time.

For `Cc1cc(-c2ccc(=O)n(CC(=O)O)c2)ccc1OCc1ccccc1` [I-323], the IC50 in experiment [1] and in experiment [2] was over 5 µM throughout.

Take `N#Cc1cccc(-c2ccc(=O)n(CC(=O)O)c2)c1` [I-324]: the half-inhibitory concentration (IC50) in experiment [1] and in experiment [2] was over 5 µM in each case.

With `O=C(O)Cc1cccc(NC(=O)c2ccccc2)c1` [I-325], the concentration for half-maximal inhibition (IC50) in experiment [1] and in experiment [2] was over 5 µM throughout.

`O=C(O)Cn1cc(/C=C/c2ccccc2)ccc1=O` [I-326]: the IC50 in experiment [1] and in experiment [2] was over 5 µM each time.

In the case of `COc1ccc(-c2ccc(=O)n(CC(=O)O)c2)cn1` [I-327], the IC50 in experiment [1] and in experiment [2] was over 5 µM throughout.

Turning to `O=C(O)Cn1cc(NC(=O)C(c2ccccc2)c2ccccc2)ccc1=O` [I-328], the half-inhibitory concentration (IC50) in experiment [1] and in experiment [2] was over 5 µM throughout.

As to `Cc1cc(=O)n(CC(=O)O)cc1-c1cc(F)c(O)c(F)c1` [I-329], the concentration for half-maximal inhibition (IC50) in experiment [1] and in experiment [2] was over 5 µM in each case.

For `Cc1ccc(C)c(-c2cn(CC(=O)O)c(=O)cc2C)c1` [I-330], the IC50 in experiment [1] and in experiment [2] was over 5 µM in each case.

Consider `CC(C)=Cc1cccc(-c2ccc(=O)n(CC(=O)O)c2)c1` [I-331], for which the IC50 in experiment [1] and in experiment [2] was over 5 µM throughout.

Turning to `Nc1ccc(-c2ccc(=O)n(CC(=O)O)c2)cc1` [I-332], the IC50 in experiment [1] and in experiment [2] was over 5 µM each time.

As to `Cn1ccc2c(-c3ccc(=O)n(CC(=O)O)c3)cccc21` [I-333], the IC50 in experiment [1] and in experiment [2] was over 5 µM each time.

Take `Cc1ccc(CC(C)C)cc1-c1ccc(=O)n(CC(=O)O)c1` [I-334]: the IC50 in experiment [1] and in experiment [2] was over 5 µM each time.

Consider `O=C(O)Cc1cc(-c2ccccc2)ccc1O` [I-335], for which the IC50 in experiment [1] and in experiment [2] was over 5 µM in each case.

In the case of `Cc1ccccc1-c1ccc(O)c(CC(=O)O)c1` [I-336], the concentration for half-maximal inhibition (IC50) in experiment [1] and in experiment [2] was over 5 µM in each case.

As for `Cc1cccc(-c2ccc(O)c(CC(=O)O)c2)c1` [I-337], the IC50 in experiment [1] and in experiment [2] was over 5 µM throughout.

Consider `Cc1ccc(C)c(-c2ccc(O)c(CC(=O)O)c2)c1` [I-338], for which the IC50 in experiment [1] and in experiment [2] was over 5 µM throughout.

With `O=C(O)Cn1cc(-c2cccc3[nH]ccc23)ccc1=O` [I-339], the IC50 in experiment [1] and in experiment [2] was over 5 µM each time.

Take `CCc1ccc(C)c(-c2ccc(=O)n(CC(=O)O)c2)c1` [I-340]: the IC50 in experiment [1] and in experiment [2] was over 5 µM throughout.

As for `COc1ccc(C#N)cc1-c1ccc(=O)n(CC(=O)O)c1` [I-341], the IC50 in experiment [1] and in experiment [2] was over 5 µM throughout.

Consider `Cc1ccc(Cl)c(-c2ccc(=O)n(CC(=O)O)c2)c1` [I-342], for which the IC50 in experiment [1] and in experiment [2] was over 5 µM throughout.

As for `Cc1ccc(F)c(-c2ccc(=O)n(CC(=O)O)c2)c1` [I-343], the IC50 in experiment [1] and in experiment [2] was over 5 µM each time.

In the case of `CC(C)Cc1cccc(-c2ccc(=O)n(CC(=O)O)c2)c1` [I-344], the IC50 in experiment [1] and in experiment [2] was over 5 µM throughout.

With `CCc1cccc(-c2ccc(=O)n(CC(=O)O)c2)c1` [I-345], the 50% inhibitory concentration (IC50) in experiment [1] and in experiment [2] was over 5 µM in each case.

Regarding `Cc1cc(O)ccc1-c1ccc(=O)n(CC(=O)O)c1` [I-346], the half-inhibitory concentration (IC50) in experiment [1] and in experiment [2] was over 5 µM each time.

For the compound `COc1c(F)cc(-c2ccc(=O)n(CC(=O)O)c2)cc1F` [I-347], the IC50 in experiment [1] and in experiment [2] was over 5 µM throughout.

Turning to `Cc1cc(-c2ccc(=O)n(CC(=O)O)c2)c(C)cc1F` [I-348], the 50% inhibitory concentration (IC50) in experiment [1] and in experiment [2] was over 5 µM each time.

For the compound `CCCc1ccc(C)c(-c2ccc(=O)n(CC(=O)O)c2)c1` [I-349], the IC50 in experiment [1] and in experiment [2] was over 5 µM in each case.

As to `Cc1ccc(C(F)(F)F)cc1-c1ccc(=O)n(CC(=O)O)c1` [I-350], the concentration for half-maximal inhibition (IC50) in experiment [1] and in experiment [2] was over 5 µM throughout.

As for `O=C(O)Cc1cccc(NC(=O)CCc2cccc(OC3CCCC3)c2)c1` [I-351], the IC50 in experiment [1] and in experiment [2] was over 5 µM throughout.

Regarding `COc1ccc(-c2ccccc2C)cc1CC(=O)O` [I-352], the half-inhibitory concentration (IC50) in experiment [1] and in experiment [2] was over 5 µM each time.

With `COc1ccc(-c2cccc(C)c2)cc1CC(=O)O` [I-353], the IC50 in experiment [1] and in experiment [2] was over 5 µM each time.

Regarding `COc1ccc(-c2cc(C)ccc2C)cc1CC(=O)O` [I-354], the IC50 in experiment [1] and in experiment [2] was over 5 µM throughout.

For `O=C(O)Cn1cc(N2CCOCC2)ccc1=O` [I-355], the IC50 in experiment [1] and in experiment [2] was over 5 µM throughout.

On to `Cc1cc(C)c(-c2ccc(=O)n(CC(=O)O)c2)cc1C` [I-356], for which the IC50 in experiment [1] and in experiment [2] was over 5 µM throughout.

Take `O=C(O)Cn1cc(N2CCCCC2)ccc1=O` [I-357]: the IC50 in experiment [1] and in experiment [2] was over 5 µM each time.

Consider `CCCc1cccc(-c2ccc(=O)n(CC(=O)O)c2)c1` [I-358], for which the IC50 in experiment [1] and in experiment [2] was over 5 µM throughout.

With `COc1cc(C)c(-c2ccc(=O)n(CC(=O)O)c2)cc1C` [I-359], the half-maximal inhibitory concentration (IC50) in experiment [1] and in experiment [2] was over 5 µM throughout.

Turning to `Cc1cc(-c2ccc(=O)n(CC(=O)O)c2)c(C)cc1O` [I-360], the IC50 in experiment [1] and in experiment [2] was over 5 µM throughout.

In the case of `O=C(O)Cn1cc(-c2cnc(N3CCOCC3)nc2)ccc1=O` [I-361], the IC50 in experiment [1] and in experiment [2] was over 5 µM each time.

`COc1ncc(-c2ccc(=O)n(CC(=O)O)c2)cn1` [I-362]: the IC50 in experiment [1] and in experiment [2] was over 5 µM throughout.

In the case of `Cn1ccc2cccc(-c3ccc(=O)n(CC(=O)O)c3)c21` [I-363], the 50% inhibitory concentration (IC50) in experiment [1] and in experiment [2] was over 5 µM in each case.

Turning to `Cc1ccc(C#N)c(-c2ccc(=O)n(CC(=O)O)c2)c1` [I-364], the concentration for half-maximal inhibition (IC50) in experiment [1] and in experiment [2] was over 5 µM throughout.

`COc1ncc(-c2ccc(=O)n(CC(=O)O)c2)cc1F` [I-365]: the half-inhibitory concentration (IC50) in experiment [1] and in experiment [2] was over 5 µM each time.

`Cc1cc(OCc2ccccc2)ccc1-c1ccc(=O)n(CC(=O)O)c1` [I-366]: the IC50 in experiment [1] and in experiment [2] was over 5 µM each time.

As to `Nc1ccc(-c2ccc(=O)n(CC(=O)O)c2)cn1` [I-367], the concentration for half-maximal inhibition (IC50) in experiment [1] and in experiment [2] was over 5 µM in each case.

Regarding `O=C(O)Cn1cc(-c2cccc(O)c2)ccc1=O` [I-368], the IC50 in experiment [1] and in experiment [2] was over 5 µM each time.

With `O=C(O)Cn1cc(-c2ccccc2C(F)(F)F)ccc1=O` [I-369], the half-inhibitory concentration (IC50) in experiment [1] and in experiment [2] was over 5 µM each time.

As to `O=C(O)Cn1cc(-c2ccc(F)cc2F)ccc1=O` [I-370], the concentration for half-maximal inhibition (IC50) in experiment [1] and in experiment [2] was over 5 µM throughout.

Turning to `O=C(O)Cn1cc(-c2cc(F)cc(F)c2)ccc1=O` [I-371], the IC50 in experiment [1] and in experiment [2] was over 5 µM each time.

For the compound `O=C(O)Cn1cc(-c2ccc(C(F)(F)F)cc2)ccc1=O` [I-372], the IC50 in experiment [1] and in experiment [2] was over 5 µM throughout.

As to `O=C(O)Cn1cc(C(=O)NCc2ccccc2)ccc1=O` [I-373], the half-inhibitory concentration (IC50) in experiment [1] and in experiment [2] was over 5 µM each time.

Turning to `O=C(O)Cn1cc(C(=O)Nc2ccccc2)ccc1=O` [I-374], the half-maximal inhibitory concentration (IC50) in experiment [1] and in experiment [2] was over 5 µM in each case.

Turning to `O=C(O)Cn1cc(-c2cccc(Cl)c2)ccc1=O` [I-375], the IC50 in experiment [1] and in experiment [2] was over 5 µM throughout.

In the case of `Cc1cc(-c2ccc(=O)n(CC(=O)O)c2)ccc1F` [I-376], the IC50 in experiment [1] and in experiment [2] was over 5 µM throughout.

For `O=C(O)Cn1cc(NC(=O)Cc2ccccc2)ccc1=O` [I-377], the IC50 in experiment [1] and in experiment [2] was over 5 µM each time.

`COc1cc(-c2ccc(=O)n(CC(=O)O)c2)ccn1` [I-378]: the half-inhibitory concentration (IC50) in experiment [1] and in experiment [2] was over 5 µM throughout.

On to `O=C(O)Cn1cc(-c2ccccc2Cl)ccc1=O` [I-379], for which the IC50 in experiment [1] and in experiment [2] was over 5 µM in each case.

`O=C(O)Cn1cc(-c2ccc(N3CCCC3)nc2)ccc1=O` [I-380]: the IC50 in experiment [1] and in experiment [2] was over 5 µM throughout.

`O=C(O)Cn1cc(-c2cccc(C(F)(F)F)c2)ccc1=O` [I-381]: the IC50 in experiment [1] and in experiment [2] was over 5 µM in each case.

In the case of `O=C(O)Cn1cc(NC(=O)c2ccccc2)ccc1=O` [I-382], the concentration for half-maximal inhibition (IC50) in experiment [1] and in experiment [2] was over 5 µM in each case.

Consider `CN(C)C(=O)c1ccc(-c2ccc(=O)n(CC(=O)O)c2)c(F)c1` [I-383], for which the 50% inhibitory concentration (IC50) in experiment [1] and in experiment [2] was over 5 µM in each case.

Usually IC50 stands for the concentration that gives 50% inhibition.

The values above are taken from patent US20250214969A1, “PROTEIN DEGRADERS AND USES THEREOF” (Kymera Therapeutics, Inc., priority 2022, published 2025).
